According to ChEMBL document CHEMBL1201861, “Genomics of Drug Sensitity in Cancer screening data, Wellcome Trust Sanger Institute”:

Experiments:
Assay in all cases: cells
C8166 = format: functional, cell-based; conditions: Homo sapiens;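 also: growth inhibition of human C8166 cells measured by a cell viability assay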
Description: SANGER: Inhibition of human C8166 cell growth in a cell viability assay.

SF-295 = format: functional, cell-based, Homo sapiens; conditions: Homo sapiens, SF-295; read-out: IC50;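 also: growth inhibition of SF-295 cells, read out with a cell viability assay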
Description: SANGER: Inhibition of human SF295 cell growth in a cell viability assay.

A-431 = format: functional, cell-based, Homo sapiens; conditions: Homo sapiens, A-431;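 also: growth inhibition of A-431 cells, determined with a cell viability read-out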
Description: SANGER: Inhibition of human A431 cell growth in a cell viability assay.

KYSE-520 cell line = format: functional, cell-based, Homo sapiens; conditions: Homo sapiens, KYSE-520;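 also: growth inhibition of human KYSE-520 cells, read out with a viability assay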
Description: SANGER: Inhibition of human KYSE-520 cell growth in a cell viability assay.

U-118-MG = format: functional, cell-based, Homo sapiens; conditions: Homo sapiens, U-118-MG
Description: SANGER: Inhibition of human U-118-MG cell growth in a cell viability assay.

KYSE-180 = format: functional, cell-based, Homo sapiens; conditions: Homo sapiens, KYSE-180;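 also: growth inhibition of KYSE-180 cells, read out with a cell viability assay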
Description: SANGER: Inhibition of human KYSE-180 cell growth in a cell viability assay.

OAW-28 = format: functional, cell-based, Homo sapiens; conditions: Homo sapiens, OAW-28;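 also: growth inhibition of OAW-28 cells, read out with a cell viability assay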
Description: SANGER: Inhibition of human OAW-28 cell growth in a cell viability assay.

NCI-H82 = format: functional, cell-based; conditions: Homo sapiens;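 also: growth inhibition of NCI-H82 cells, measured with a cell viability readout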
Description: SANGER: Inhibition of human NCI-H82 cell growth in a cell viability assay.

SK-MEL3 = format: functional, cell-based, Homo sapiens, SK-MEL-3; conditions: Homo sapiens, SK-MEL3;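 also: growth inhibition of human SK-MEL-3 cells, read out with a cell viability assay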
Description: SANGER: Inhibition of human SK-MEL-3 cell growth in a cell viability assay.

L-428 = format: functional, cell-based; conditions: Homo sapiens
Description: SANGER: Inhibition of human L-428 cell growth in a cell viability assay.

LU-99A = format: functional, cell-based, Homo sapiens; conditions: Homo sapiens, LU-99A;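 also: growth inhibition of LU-99A cells, read out with a cell viability assay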
Description: SANGER: Inhibition of human LU-99A cell growth in a cell viability assay.

DK-MG = format: functional, cell-based, Homo sapiens; conditions: Homo sapiens, DK-MG;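 also: growth inhibition of DK-MG cells, read out with a cell viability assay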
Description: SANGER: Inhibition of human DK-MG cell growth in a cell viability assay.

ES1 = format: functional, cell-based, Homo sapiens; conditions: Homo sapiens, ES1;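 also: growth inhibition of ES1 cells, read out with a cell viability assay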
Description: SANGER: Inhibition of human ES1 cell growth in a cell viability assay.

EC-GI-10 = format: functional, cell-based, Homo sapiens; conditions: Homo sapiens, EC-GI-10
Description: SANGER: Inhibition of human EC-GI-10 cell growth in a cell viability assay.

639-V = format: functional, cell-based, Homo sapiens; conditions: Homo sapiens, 639-V;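 also: growth inhibition of 639-V cells, read out with a cell viability assay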
Description: SANGER: Inhibition of human 639-V cell growth in a cell viability assay.

EKVX = format: functional, cell-based, Homo sapiens; conditions: Homo sapiens, EKVX;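 also: growth inhibition of human EKVX cells, read out with a cell viability assay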
Description: SANGER: Inhibition of human EKVX cell growth in a cell viability assay.

BPH-1 = format: functional, cell-based, Homo sapiens; conditions: Homo sapiens, BPH-1;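 also: cell viability assay measuring growth inhibition of human BPH-1 cells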
Description: SANGER: Inhibition of human BPH-1 cell growth in a cell viability assay.

OE19 = format: functional, cell-based, Homo sapiens; conditions: Homo sapiens, OE19;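 also: growth inhibition of OE19 cells, measured through a cell viability read-out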
Description: SANGER: Inhibition of human OE19 cell growth in a cell viability assay.

U-87 MG = format: functional, cell-based, U-87MG ATCC; conditions: Homo sapiens;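 also: growth inhibition of the cells measured with a viability assay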
Description: SANGER: Inhibition of human U-87-MG cell growth in a cell viability assay.

HSC-3 = format: functional, cell-based, Homo sapiens; conditions: Homo sapiens, HSC-3
Description: SANGER: Inhibition of human HSC-3 cell growth in a cell viability assay.

LAN-6 = format: functional, cell-based, Homo sapiens; conditions: Homo sapiens, LAN-6;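 also: growth inhibition of LAN-6 cells, determined with a cell viability assay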
Description: SANGER: Inhibition of human LAN-6 cell growth in a cell viability assay.

A673 = format: functional, cell-based, Homo sapiens; conditions: Homo sapiens, A673;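 also: growth inhibition of human A673 cells, read out through a cell viability assay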
Description: SANGER: Inhibition of human A673 cell growth in a cell viability assay.

NCI-H520 = format: functional, cell-based, Homo sapiens; conditions: Homo sapiens, NCI-H520;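 also: growth inhibition of NCI-H520 cells, measured by a cell viability assay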
Description: SANGER: Inhibition of human NCI-H520 cell growth in a cell viability assay.

SK-N-FI = format: functional, cell-based, Homo sapiens; conditions: Homo sapiens, SK-N-FI;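 also: cell viability assay measuring growth inhibition of human SK-N-FI cells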
Description: SANGER: Inhibition of human SK-N-FI cell growth in a cell viability assay.

D-392MG = format: functional, cell-based, Homo sapiens; conditions: Homo sapiens, D-392MG
CAMA-1 = format: functional, cell-based, Homo sapiens; conditions: Homo sapiens, CAMA-1;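 also: growth inhibition of CAMA-1 cells, read out with a cell viability assay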
Description: SANGER: Inhibition of human CAMA-1 cell growth in a cell viability assay.

GCT = format: functional, cell-based, Homo sapiens; conditions: Homo sapiens, GCT;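 also: GCT cell line proliferation inhibition, read out with a cell viability assay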
Description: SANGER: Inhibition of human GCT cell growth in a cell viability assay.

NCI-H1838 = format: functional, cell-based, Homo sapiens; conditions: Homo sapiens, NCI-H1838;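 also: growth inhibition of NCI-H1838 cells, determined with a cell viability readout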
Description: SANGER: Inhibition of human NCI-H1838 cell growth in a cell viability assay.

Panc1005 = format: functional, cell-based, Homo sapiens; conditions: Homo sapiens, Panc1005;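 also: growth inhibition of human PANC-10-05 cells, measured by a cell viability assay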
Description: SANGER: Inhibition of human PANC-10-05 cell growth in a cell viability assay.

MEG-01 = format: functional, cell-based; conditions: Homo sapiens;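 also: growth inhibition of MEG-01 cells, read out by a cell viability assay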
Description: SANGER: Inhibition of human MEG-01 cell growth in a cell viability assay.

SW-620 = format: functional, cell-based, Homo sapiens; conditions: Homo sapiens, SW-620;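 also: growth inhibition of human SW-620 cells, measured by a cell viability assay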
Description: SANGER: Inhibition of human SW620 cell growth in a cell viability assay.

HN = format: functional, cell-based, Homo sapiens; conditions: Homo sapiens, HN
Description: SANGER: Inhibition of human HN cell growth in a cell viability assay.

HuTu80 = format: functional, cell-based, Homo sapiens, HUTU-80; conditions: Homo sapiens, HuTu80;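 also: growth inhibition of HuTu80 human cells, determined with a cell viability readout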
Description: SANGER: Inhibition of human HUTU-80 cell growth in a cell viability assay.

MOLT-16 = format: functional, cell-based; conditions: Homo sapiens;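 also: growth inhibition of human MOLT-16 cells, read out with a cell viability assay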
Description: SANGER: Inhibition of human MOLT-16 cell growth in a cell viability assay.

SW948 = format: functional, cell-based, Homo sapiens; conditions: Homo sapiens, SW948;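 also: growth inhibition of SW948 cells, read out with a cell viability assay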
Description: SANGER: Inhibition of human SW948 cell growth in a cell viability assay.

NCI-H2052 = format: functional, cell-based, Homo sapiens; conditions: Homo sapiens, NCI-H2052;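 also: growth inhibition of NCI-H2052 cells, read out with a cell viability assay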
Description: SANGER: Inhibition of human NCI-H2052 cell growth in a cell viability assay.

HCC1187 = format: functional, cell-based, Homo sapiens; conditions: Homo sapiens, HCC1187;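 also: growth inhibition of HCC1187 cells, read out with a cell viability assay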
Description: SANGER: Inhibition of human HCC1187 cell growth in a cell viability assay.

SNB-75 = format: functional, cell-based, Homo sapiens; conditions: Homo sapiens, SNB-75;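 also: cell viability assay measuring growth inhibition of human SNB-75 cells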
Description: SANGER: Inhibition of human SNB75 cell growth in a cell viability assay.

T84 = format: functional, cell-based, Homo sapiens; conditions: Homo sapiens, T84;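 also: growth inhibition measured with a cell viability readout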
Description: SANGER: Inhibition of human T84 cell growth in a cell viability assay.

RERF-LC-MS = format: functional, cell-based, Homo sapiens; conditions: Homo sapiens, RERF-LC-MS;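 also: growth inhibition of human RERF-LC-MS cells, read out by a cell viability assay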
Description: SANGER: Inhibition of human RERF-LC-MS cell growth in a cell viability assay.

HT-3 = format: functional, cell-based, Homo sapiens; conditions: Homo sapiens, HT-3;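 also: growth inhibition measured with a cell viability readout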
Description: SANGER: Inhibition of human HT-3 cell growth in a cell viability assay.

HT1197 = format: functional, cell-based, Homo sapiens, HT-1197; conditions: Homo sapiens, HT1197
Description: SANGER: Inhibition of human HT-1197 cell growth in a cell viability assay.

GCIY = format: functional, cell-based, Homo sapiens; conditions: Homo sapiens, GCIY;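 also: growth inhibition of the human GCIY cell line, read out by a cell viability assay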
Description: SANGER: Inhibition of human GCIY cell growth in a cell viability assay.

NCI-H1770 = format: functional, cell-based; conditions: Homo sapiens;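 also: growth inhibition of NCI-H1770 cells determined with a viability readout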
Description: SANGER: Inhibition of human NCI-H1770 cell growth in a cell viability assay.

UACC-893 = format: functional, cell-based, Homo sapiens; conditions: Homo sapiens, UACC-893
Description: SANGER: Inhibition of human UACC-893 cell growth in a cell viability assay.

LB1047-RCC = format: functional, cell-based, Homo sapiens; conditions: Homo sapiens, LB1047-RCC;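 also: inhibition of cell growth, determined with a cell viability assay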
Description: SANGER: Inhibition of human LB1047-RCC cell growth in a cell viability assay.

ME-180 = format: functional, cell-based; conditions: Homo sapiens;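 also: cell viability assay measuring growth inhibition of ME-180 cells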
Description: SANGER: Inhibition of human ME-180 cell growth in a cell viability assay.

NCI-H526 = format: functional, cell-based; conditions: Homo sapiens;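 also: growth inhibition of the human NCI-H526 cell line, measured by a cell viability assay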
Description: SANGER: Inhibition of human NCI-H526 cell growth in a cell viability assay.

NCI-H226 = format: functional, cell-based, Homo sapiens; conditions: Homo sapiens, NCI-H226;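 also: cell viability read-out used to gauge growth inhibition of the cells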
Description: SANGER: Inhibition of human NCI-H226 cell growth in a cell viability assay.

KM12 = format: functional, cell-based, Homo sapiens; conditions: Homo sapiens, KM12;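 also: KM12 cell growth inhibition, read out with a cell viability assay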
Description: SANGER: Inhibition of human KM12 cell growth in a cell viability assay.

A388 = format: functional, cell-based, Homo sapiens; conditions: Homo sapiens, A388;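 also: growth inhibition of human A388 cells, read out with a cell viability assay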
Description: SANGER: Inhibition of human A388 cell growth in a cell viability assay.

Measured: IC50

Cc1ccc(Nc2nccc(N(C)c3ccc4c(C)n(C)nc4c3)n2)cc1S(N)(=O)=O [PAZOPANIB]
6.57 µM: SNB-75
5.72 µM: DK-MG
5.73 µM: NCI-H520
1.28 µM: HuTu80
3.53 µM: LB1047-RCC
> 8 µM: all other assays above

CN(c1ncccc1CNc1nc(Nc2ccc3c(c2)CC(=O)N3)ncc1C(F)(F)F)S(C)(=O)=O [PF-00562271]
2.29 µM: KYSE-180
1.29 µM: BPH-1
1.45 µM: HuTu80
0.386 µM: KM12
> 2.56 µM: all other assays above

Cn1cc(C2=C(c3ccc(Cl)cc3Cl)C(=O)NC2=O)c2ccccc21 [SB-216763]
0.0489 µM: NCI-H526
0.294 µM: NCI-H1770
> 10 µM: all other assays above

Cn1cncc1[C@@](N)(c1ccc(Cl)cc1)c1ccc2c(c1)c(-c1cccc(Cl)c1)cc(=O)n2C [TIPIFARNIB]
2.63 µM: HSC-3
14.1 µM: LAN-6
0.482 µM: SW-620
0.546 µM: T84
5.05 µM: Panc1005
0.285 µM: HuTu80
0.655 µM: A-431
3.61 µM: MEG-01
15.3 µM: A673
12.5 µM: GCIY
1.19 µM: 639-V
2.16 µM: SF-295
4.98 µM: SK-MEL3
2.22 µM: NCI-H520
14.5 µM: ME-180
2.24 µM: BPH-1
9.02 µM: SNB-75
3.37 µM: KYSE-180
7.09 µM: LU-99A
11.7 µM: HT1197
7.61 µM: HCC1187
5.75 µM: OE19
0.258 µM: MOLT-16
9.1 µM: NCI-H82
0.117 µM: KM12
1.96 µM: ES1
0.865 µM: A388
> 16 µM: all other assays above
